From patent US11738095B2, “Cyanine-containing compounds for cancer imaging and treatment” (Emory University, priority 2007, dated 2023)
“Also recorded” adds a separate entry of the source.

Legend:
[1] = system: PDAC-2.3, PDAC-3.3, BTC-3, BTC-5; assay: uptake of IR783 in cell lines: pancreatic; format: cell-based, human
Source text: (§1) The uptake of IR783 was studied and confirmed in a variety of human cell lines as shown below: […]

P69 = assay: uptake of IR783 in cell lines: human prostate epithelia; format: cell-based
Source text: as §1

HepG2 = assay: uptake of IR783 in cell lines: liver; format: cell-based, human
Source text: as §1

NPF = assay: uptake of IR783 in cell lines: prostate fibroblasts; format: cell-based, human
Source text: as §1

[2] = system: subcutaneous ARCaPM tumor, intratibial C4-2 tumor; assay: IR783 imaging of human prostate cancer xenografts in nude mice (FIG. 15); format: in vivo, mouse
Experimental: The mice were injected i.p with IR783 at 0.2 μg/kg. Imaging was performed 24 hours later with the Kodak multimodal-imaging system. Histopathological analysis (H/E) confirmed the presence of tumors. […] Histopathology confirmed the necrotic status of the tumors.

MCF-7 = assay: uptake of IR783 in cell lines: breast; format: cell-based, human
Source text: as §1

C4-2 tumors = assay: effect of MHI-25 on pre-established C4-2 tumors in mice (FIG. 9 bottom); format: in vivo, mouse; details: 100 nmols, Day 5 after administration
VEC = assay: uptake of IR783 in cell lines: vascular endothelia; format: cell-based, human
Source text: as §1

ARCaPM and PC3 tumors = assay: IR783 imaging of pre-established tumors in live mice, 5 nmol tail vein (FIG. 18); format: in vivo, mouse
Source text: Intratibial ARCaPM tumors were also established in live mice prior to administration of IR783. 5 nmol of IR783 was given through the tail vein and imaged using a Kodak multimodal imaging system.
Subcutaneous ARCaPM and PC3 (four tumors with different sizes) tumors were established in live mice prior to the administration of IR-783. 5 nmol of IR783 were given to mice through tail vein and imaged using Kodak multimodal-imaging system.

[3] = system: ARCaPM prostate cancer cells and P69 normal prostate epithelial cells; assay: confocal fluorescence imaging of IR783 uptake, cancer versus normal cells (FIG. 14); format: cell-based, human
Experimental: After being washed in PBS to remove free dyes, the cells were subject to confocal fluorescence imaging. DAPI, added together with IR783, was used as a positive control for the staining of the cell nucleus. P69, representing normal human prostate epithelial cells, was stained in parallel. Images were acquired by Zeiss LSM 510 META confocal microscopy. […] 100 μM BSP was used to pre-incubate with ARCaPM, before 50 μM IR783 was added.

RAW = assay: uptake of IR783 in cell lines: mouse macrophages; format: cell-based
Source text: as §1

[4] = system: human renal tissues freshly obtained from surgery; assay: staining of fresh human renal tumor specimens with IR783 (FIG. 20)
Source text: The compounds of the invention can also be used to detect cancer in fresh (or frozen or preserved) cells. In one embodiment of this aspect of the invention, cells are obtained from small needle biopsy, needle aspiration, or other methods as known in the art. The cells after dye uptake is completed can be minced, sliced, smeared onto a slide, or any other preparation. An amount of one or more compound of the invention can be dropped onto the cells or otherwise contacted with the cells (shaken in a tube, for example). […] The cells can be imaged under a fluorescence microscope equipped with a NIR filter, for example.

RT-4, T24, 253J, TCC = assay: uptake of IR783 in cell lines: bladder; format: cell-based, human
Source text: as §1

BMC = assay: uptake of IR783 in cell lines: bone marrow stroma; format: cell-based, human
Source text: as §1

[5] = system: ARCaPM, LNCaP, ARCaPE, C4-2, PC-3; assay: uptake of IR783 in cell lines: prostate; format: cell-based, human
Source text: as §1

RCC = assay: uptake of IR783 in cell lines: kidney; format: cell-based, human
Source text: as §1

HEK293 = assay: uptake of IR783 in cell lines: human embryonic kidney epithelial normal cells; format: cell-based
Source text: as §1

C4-2 = assay: effect of MHI-25 on C4-2 cells in culture (FIG. 9 top); format: cell-based, human; details: for cell death in culture: 24 hrs
Source text: To confirm the ability of other compounds to exert cytotoxicity against the growth of human tumors in vitro and in vivo, the effect of MHI-25 on the growth of C4-2 tumors in vitro (FIG. 9 top panel) and in mice (FIG. 9 bottom panel) was studied.

[6] = system: orthotopic prostate ARCaPM tumor; assay: NIR imaging to assess pharmacokinetics of IR783 in vivo (FIG. 16A, 19); set-up: species or system mouse
Experimental: NIR imaging studies were performed to assess pharmacokinetics of the IR783 in vivo. […] This mouse was injected i.p with 0.2 μg/kg IR783 at 0 hrs.

K562 = assay: uptake of IR783 in cell lines: leukemia; format: cell-based, human
Source text: as §1

HeLa = assay: uptake of IR783 in cell lines: cervical; format: cell-based, human
Source text: as §1

H358 = assay: uptake of IR783 in cell lines: lung; format: cell-based, human
Source text: as §1

[7] = system: human prostate cancer cells PC3 and ARCaPM in whole blood; assay: NIR detection of cancer cells spiked into human blood with IR783 (FIG. 17); format: cell-based
Experimental: IR783 can be used to detect and enrich disseminating cancer cells in the blood (FIG. 17). […] 5×10^3 human prostate cancer cells PC3 and ARCaPM were used to spike a 0.5 ml heparinized whole blood from a healthy donor. After incubation at 37° C. for 30 minutes, a gradient centrifugation (Histopaque-1077, Sigma) was applied to remove red blood cells. The remaining cells were washed 5 times in PBS, cells in 50 μl of the 250 μl total volume were smeared on a glass slide for NIR fluorescence detection. […] This method can detect as few as 10 human prostate cancer cells/ml of human blood, a concentration close to that of the estimated numbers of CTC as reported by previous investigators.

HaCaT = assay: uptake of IR783 in cell lines: skin; format: cell-based, human
Source text: as §1

CC1(C)C(=CC=C2CCCC(C=CC3=[N+](CCCCS(=O)(=O)[O-])c4ccccc4C3(C)C)=C2Cl)N(CCCCS(=O)(=O)[O-])c2ccccc21.[Na+] [IR783]
Uptake [1]: Strong
Uptake (P69): Very low
Uptake (HepG2): Strong
Uptake (NPF): Very low
dye in normal organs removed from hosts ([2]; fluorescence imaging of all organs, data not shown): lack of uptake of the dye in normal organs
dye in metabolically active C4-2 tumors in mouse tibia ([2]; mouse, in vivo): retained the dye
dye retention in necrotic tumors on the contralateral side ([2]; mouse, in vivo): did not
smallest tumor size detected ([2]; orthotopic or bone metastatic lesions, data not shown): ~2 mm^3
uptake by xenografts and metastatic bone lesions ([2]; subcutaneous and intra-tibial sites of nude mice, 0.2 μg/kg i.p, 24 hours): preferentially taken up
Uptake (MCF-7): Strong
effect on pre-established tumors (C4-2 tumors): induced marked cell death, with tumors almost eliminated at Day 5
Uptake (VEC): Very low
tumor images (ARCaPM and PC3 tumors; intratibial ARCaPM tumors, data not shown): Clear tumor images were detected
tumor images (ARCaPM and PC3 tumors; subcutaneous ARCaPM and PC3 tumors): clear tumor images can be detected
uptake by cancer cells at 0° C. ([3]; 0° C., data not shown): no uptake
uptake, ARCaPM compared with P69 ([3]; 50 μM, 37° C., 30 min): only in the cancer cells
effect of BSP on uptake by ARCaPM cells ([3]; 100 μM BSP pre-incubation, 50 μM IR783): inhibited by BSP; also recorded: completely abolished
time dependence of uptake ([3]; ARCaPM, FIG. 14): time-dependent fashion
dose dependence of uptake ([3]; ARCaPM, data not shown): dose-dependent fashion
Uptake (RAW): Very low
distribution in renal tissue, confocal microscopy ([4]; tissues incubated with IR783, washed): concentrated in renal cancer but not normal kidney cells
fluorescence imaging of tumor regions ([4]; tumor, transitional and normal sections): intense uptake and retention
Uptake (RT-4, T24, 253J, TCC): Strong
Uptake (BMC): Very low
Uptake [5]: Strong
Uptake (RCC): Strong
Uptake (HEK293): Low
cell death in culture (C4-2; 10 uM): did not induce cell death
cell death in culture (C4-2; 100 uM): induced a significant cell death
apoptosis (C4-2; 100 μM, exposure 24 hrs): clearly induced apoptosis
non-specific imaging ([6]; 0.2 μg/kg i.p): non-specific imaging can be seen in the first 24 hrs, predominantly in the liver
retention in tumors ([6]; 0.2 μg/kg i.p, 3.4 cm^3 orthotopic ARCaPM tumor): more than 4 days
initial distribution ([6]; 0.2 μg/kg i.v or i.p): initially accumulated in liver, lung and spleen
time at which dye appeared in tumor ([6]; 0.2 μg/kg i.v or i.p): 24 h
time after which tumors and metastases can be readily identified ([6]; ARCaP orthotopic tumors, FIG. 19): 24 to 48 h
signal in mice without tumors ([6]; data not shown): background activity
accumulation in gall bladder or urinary bladder ([6]; mouse, in vivo): not detected
time of accumulation in tumor and metastases ([6]; orthotopic xenograft ARCaPm tumor, FIG. 16 legend): 24 to 96 h
Uptake (K562): Strong
Uptake (HeLa): Strong
Uptake (H358): Strong
lowest number of cancer cells detected [7]: 10 human prostate cancer cells/ml of human blood
fluorescence of normal periphery mononucleated cells ([7]; 37° C., 30 minutes): very low to background NIR fluorescence
fluorescence of cancer cells ([7]; 37° C., 30 minutes, whole blood of a healthy donor): strong fluorescence signals in the cytoplasm
Uptake (HaCaT): Very low
